Results from US20040259864A1, “Substituted pyrimidinone derivatives as ligands of integrin receptors” (priority 2001, published 2004).

Molecular target: T1, integrin αvβ3 (Homo sapiens, UniProt P05106+P06756)
T1 construct: from tissue; host or cells: human placenta
Experiment: Integrin αvβ3 assay (competition with vitronectin for binding to solid-phase integrin αvβ3)
Conditions: integrin αvβ3 from human placenta, ranking in words only
Procedure: Integrin αvβ3 antagonists were identified and assessed using a test system based on competition between the natural integrin αvβ3 ligand vitronectin and the test substance for binding to integrin αvβ3 bound to a solid phase. […]
coat microtiter plates with 250 ng/ml integrin-αvβ3 in 0.05 M NaHCO3 pH 9.2; 0.1 ml/well; […]
saturate with 1% milk powder/assay buffer; 0.3 ml/well; 0.5 h/RT wash 3× with 0.05% Tween 20/assay buffer
Test substance in 0.1% milk powder/assay buffer, 50 μl/well+0 μg/ml or 2 μg/ml human vitronectin (Boehringer Ingelheim T007) in 0.1% milk powder/assay buffer, 50 μl/well; 1 h/RT […]
1 μg/ml anti human vitronectin antibody coupled to peroxidase (Kordia SAVN-APHRP) in 0.1%: milk powder/assay buffer; 0.1 ml/well; 1 h/RT […]
0.1 ml/well peroxidase substrate […]
stop reaction with 0.1 ml/well 2 M H2SO4 […]
measure the absorption at 450 nm
Integrin αvβ3: human placenta is solubilized with Nonidet, and integrin αvβ3 is affinity-purified on a GRGDSPK matrix (elution with EDTA). Contamination by integrin αIIbβ3 and human serum albumin, as well as the detergent and EDTA, are removed by anion exchange chromatography.
Assay buffer: 50 mM tris pH 7.5; 100 mM NaCl; 1 mM CaCl2; 1 mM MgCl2; 10 ΞM MnCl2 […]
Peroxidase substrate: mix 0.1 ml of TMB solution (42 mM TMB In DMSO) and 10 ml of substrate buffer (0.1 M Na acetate pH 4.9) and then add 14.7 pi of 3% H2O2. […]

Q: Which “IC50 values (concentration of the ligand at which 50% of the ligand is displaced)” value does the source give for `Cc1cn(CC(Cc2ccc3ccccc3c2)C(=O)O)c(=O)nc1N1CCC(Nc2nc3ccccc3[nH]2)CC1.O=C(O)C(F)(F)F` (stereo not shown) [Compound I, 2-[(1-{1-[2-Carboxy-3-(2-naphthyl)propyl]-5-methyl-2-oxo-1,2-dihydropyrimidin-4-yl)-piperidin-4-yl)amino]-1H-benzimidazol-1-ium trifluoroacetate] here?
A: Its value is “best result”.
